The record followed here is patent publication US20220386606A1, “SPECIFICALLY SUBSTITUTED 3-PHENYL-5-SPIROCYCLOPENTYL-3-PYRROLIN-2-ONES AND THEIR USE AS HERBICIDES” (Bayer Aktiengesellschaft, priority 2019, published 2022).

Experiment [1] relates to ECHCG. The experiment can be described thus: Post-emergence herbicidal action against ECHCG. Type of experiment: in vivo, Echinochloa crus-galli. The conditions noted are these: 80 g/ha, visual assessment about 3 weeks after treatment vs untreated controls. In a few lines:
(§1)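 Weeds were grown in sandy loam in a greenhouse and treated at the one-leaf stage, 2 to 3 weeks after sowing. WP or EC formulations were sprayed onto green parts at 600 to 800 l/ha water with 0.2% wetting agent. Visual % action versus untreated controls was scored after about 3 weeks.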

In experiment [2] the test system is ALOMY. The experiment is described as follows: Post-emergence herbicidal action against ALOMY. Type of experiment: in vivo, Alopecurus myosuroides. The conditions noted are these: 80 g/ha, visual assessment after about 3 weeks. Put shortly: as §1
The test system of experiment [3] is ABUTH. The experiment is described as follows: Post-emergence herbicidal action against ABUTH. The conditions noted are these: 80 g/ha, visual assessment about 3 weeks after treatment vs untreated controls. The class given is in vivo, Abutylon threophrasti. Put shortly:
as §1

In experiment [4] the test system is VIOTR. The experiment is described as follows: Post-emergence herbicidal action against VIOTR. The class given is in vivo, Viola tricolor. The conditions noted are these: 80 g/ha, visual assessment about 3 weeks after treatment vs untreated controls. How it is done:
(§2) Seeds of monocotyledonous and dicotyledonous weed and crop plants are laid out in sandy loam soil in wood-fiber pots, covered with soil and cultivated in a greenhouse under good growth conditions. 2 to 3 weeks after sowing, the test plants are treated at the one-leaf stage. The compounds of the invention, formulated in the form of wettable powders (WP) or as emulsion concentrates (EC), are then sprayed onto the green parts of the plants as aqueous suspension or emulsion at a water application rate equating to 600 to 800 l/ha with addition of 0.2% wetting agent. After the test plants have been left to stand in the greenhouse under optimal growth conditions for about 3 weeks, the action of the preparations is assessed visually in comparison to untreated controls (herbicidal action in percent (%): 100% activity=the plants have died, 0% activity=like control plants).

In experiment [5] the test system is SETVI. The experiment can be described thus: Post-emergence herbicidal action against SETVI. Type of experiment: in vivo, Setaria viridis. The conditions noted are these: 80 g/ha, visual assessment about 3 weeks after treatment vs untreated controls. Put shortly: as §1
In the next experiment the test system is HORMU. The experiment can be described thus: Post-emergence herbicidal action against HORMU. The class given is in vivo, Hordeum murinum. The conditions noted are these: 80 g/ha, visual assessment about 3 weeks after treatment vs untreated controls. Put shortly: as §1
For experiment [6], the system named is LOLRI. The experiment is described as follows: Post-emergence herbicidal action against LOLRI. The class given is in vivo, Lolium rigidum. The conditions noted are these: 80 g/ha, visual assessment about 3 weeks after treatment vs untreated controls. Put shortly: as §1
The test system of experiment [7] is AVEFA. The experiment can be described thus: Post-emergence herbicidal action against AVEFA. The conditions noted are these: 80 g/ha, visual assessment after about 3 weeks. The class given is in vivo, Avena fatua. Put shortly:
as §1

For experiment [8], the system named is DIGSA. The experiment can be described thus: Post-emergence herbicidal action against DIGSA. The class given is in vivo, Digitaria sanguinalis. The conditions noted are these: 80 g/ha, visual assessment about 3 weeks after treatment vs untreated controls. In a few lines: as §1
The next experiment relates to AMARE. The experiment can be described thus: Post-emergence herbicidal action against AMARE. The class given is in vivo, Amaranthus retroflexus. The conditions noted are these: 80 g/ha, visual assessment about 3 weeks after treatment vs untreated controls. How it is done:
as §2

Experiment [9] relates to SETVI. The experiment is described as follows: Pre-emergence herbicidal action against SETVI. Type of experiment: in vivo, Setaria viridis. The conditions noted are these: 320 g/ha, scored visually after 3 weeks vs untreated controls. In a few lines:
(§3)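 Scoring is visual, 3 weeks post-application, on a 0 to 100% scale relative to untreated controls (100% = plants died). Treatment is pre-emergence: aqueous suspensions or emulsions applied to the covering soil at 600 to 800 L/ha with 0.2% wetting agent.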

The subject of experiment [10] is ABUTH. The experiment can be described thus: Pre-emergence herbicidal action against ABUTH. Type of experiment: in vivo, Abutylon threophrasti. The conditions noted are these: 320 g/ha. Put shortly: as §3
Experiment [11] deals with LOLRI. The experiment is described as follows: Pre-emergence herbicidal action against LOLRI (Table 8, titled post-emergence at 320 g/ha). The conditions noted are these: table stands in the pre-emergence section. Type of experiment: in vivo, Lolium rigidum. In a few lines:
as §3

The test system of experiment [12] is VIOTR. The experiment can be described thus: Pre-emergence herbicidal action against VIOTR. The class given is in vivo, Viola tricolor. The conditions noted are these: 320 g/ha. Put shortly:
as §3

The subject of experiment [13] is AVEFA. The experiment can be described thus: Pre-emergence herbicidal action against AVEFA. The class given is in vivo, Avena fatua. The conditions noted are these: 320 g/ha, scored visually after 3 weeks vs untreated controls. In a few lines: as §3
The subject of experiment [14] is ECHCG. The experiment is described as follows: Pre-emergence herbicidal action against ECHCG. The class given is in vivo, Echinochloa crus-galli. The conditions noted are these: 320 g/ha, scored visually after 3 weeks vs untreated controls. In a few lines:
as §3

A further experiment relates to VERPE. The experiment can be described thus: Pre-emergence herbicidal action against VERPE. Type of experiment: in vivo, Veronica persica. The conditions noted are these: 320 g/ha. Put shortly: as §3
Experiment [15] concerns ALOMY. The experiment is described as follows: Pre-emergence herbicidal action against ALOMY. The conditions noted are these: 320 g/ha, scored visually after 3 weeks vs untreated controls. Type of experiment: in vivo, Alopecurus myosuroides. In a few lines:
as §3

Experiment [16] concerns DIGSA. The experiment can be described thus: Pre-emergence herbicidal action against DIGSA. The class given is in vivo, Digitaria sanguinalis. The conditions noted are these: 320 g/ha, scored visually after 3 weeks vs untreated controls. Put shortly: as §3

Regarding `CC#Cc1cc(C)c(C2=C(OC(=O)C(C)C)C3(CCC(COCC)C3)NC2=O)c(Cl)c1` (stereo not drawn) [Example P-17], the “Post-emergence action against ECHCG in %” value with ECHCG [1] is given as 100%. Besides, in the experiment with ALOMY [2], the “Post-emergence action against ALOMY in %” value was 100%. Further, the “Post-emergence action against ABUTH in %” value in the experiment on ABUTH [3] was found to be 90%. Moreover, the “Post-emergence action against VIOTR in %” value in the experiment with VIOTR [4] worked out at 80%. Besides, in the experiment with SETVI [5], the “Post-emergence action against SETVI in %” value was 100%. Besides, the “Post-emergence action against HORMU in %” value in the experiment with HORMU amounted to 100%. In the experiment on LOLRI [6], the “Post-emergence action against LOLRI in %” value turned out to be 100%. Also, the “Post-emergence action against AVEFA in %” value in the experiment with AVEFA [7] was 100%. The “Post-emergence action against DIGSA in %” value in the experiment on DIGSA [8] was 100%.

For `CC#Cc1cc(C)c(C2=C(OC(=O)OCC)C3(CCC(COC)C3)NC2=O)c(Cl)c1` (stereo not drawn) [Example P-18], in the experiment with ECHCG [1], the “Post-emergence action against ECHCG in %” value worked out at 100%. For the same molecule, the “Post-emergence action against ALOMY in %” value in the experiment with ALOMY [2] amounted to 100%. Also, the “Post-emergence action against ABUTH in %” value in the experiment with ABUTH [3] was 80%. Moreover, in the experiment with SETVI [5], the “Post-emergence action against SETVI in %” value is on record as 100%. Also, the “Post-emergence action against HORMU in %” value with HORMU is 100%. Besides, in the experiment on AMARE, the “Post-emergence action against AMARE in %” value is 80%. Also, in the experiment on LOLRI [6], the “Post-emergence action against LOLRI in %” value is listed as 100%. Moreover, in the experiment on AVEFA [7], the “Post-emergence action against AVEFA in %” value was found to be 100%. For the same molecule, in the experiment with DIGSA [8], the “Post-emergence action against DIGSA in %” value is listed as 100%.

In the case of `CC#Cc1cc(C)c(C2=C(OC(=O)OCC)C3(CCC(COCC)C3)NC2=O)c(Br)c1` (stereo not drawn) [Example P-34], the “Post-emergence action against ECHCG in %” value in the experiment with ECHCG [1] came to 100%. The “Post-emergence action against ALOMY in %” value in the experiment on ALOMY [2] was 100%. In addition, in the experiment on SETVI [9], the “Pre-emergence action against SETVI in %” value came to 100%. Besides, the “Pre-emergence action against ABUTH in %” value in the experiment with ABUTH [10] is recorded as 90%. Moreover, the “Post-emergence action against VIOTR in %” value in the experiment on VIOTR [4] stood at 80%. Besides, in the experiment with SETVI [5], the “Post-emergence action against SETVI in %” value is on record as 100%. For the same molecule, the “Pre-emergence herbicidal action against LOLRI in %” value in the experiment with LOLRI [11] was found to be 100%. Also, the “Pre-emergence action against VIOTR in %” value with VIOTR [12] came to 100%. In addition, in the experiment on AVEFA [13], the “Pre-emergence action against AVEFA in %” value is reported as 100%. For the same molecule, the “Pre-emergence action against ECHCG in %” value in the experiment with ECHCG [14] is given as 100%. Further, the “Pre-emergence action against VERPE in %” value in the experiment on VERPE stood at 80%. Further, the “Post-emergence action against LOLRI in %” value in the experiment on LOLRI [6] is 90%. The “Pre-emergence action against ALOMY in %” value in the experiment with ALOMY [15] is 100%. The “Post-emergence action against AVEFA in %” value in the experiment on AVEFA [7] was 90%. Moreover, in the experiment on DIGSA [8], the “Post-emergence action against DIGSA in %” value is listed as 100%. In addition, in the experiment with DIGSA [16], the “Pre-emergence action against DIGSA in %” value is 100%.

With `CC#Cc1cc(F)c(C2=C(OC(=O)OCC)C3(CCC(COC)C3)NC2=O)c(OC)c1` (stereo not drawn) [Example P-62], in the experiment with ECHCG [1], the “Post-emergence action against ECHCG in %” value was 100%. For the same molecule, the “Post-emergence action against ALOMY in %” value in the experiment with ALOMY [2] turned out to be 90%. Besides, in the experiment with SETVI [9], the “Pre-emergence action against SETVI in %” value was 100%. The “Post-emergence action against ABUTH in %” value with ABUTH [3] amounted to 80%. Moreover, the “Post-emergence action against SETVI in %” value with SETVI [5] came to 100%. Also, the “Pre-emergence herbicidal action against LOLRI in %” value in the experiment with LOLRI [11] was 100%. Moreover, the “Pre-emergence action against AVEFA in %” value in the experiment on AVEFA [13] was determined as 90%. For the same molecule, the “Pre-emergence action against ECHCG in %” value with ECHCG [14] was 100%. For the same molecule, in the experiment with AMARE, the “Post-emergence action against AMARE in %” value stood at 80%. Further, in the experiment on LOLRI [6], the “Post-emergence action against LOLRI in %” value came out at 90%. Also, the “Pre-emergence action against ALOMY in %” value with ALOMY [15] is recorded as 100%. In addition, the “Post-emergence action against AVEFA in %” value in the experiment with AVEFA [7] is 90%. Further, in the experiment with DIGSA [8], the “Post-emergence action against DIGSA in %” value came out at 100%. In addition, in the experiment with DIGSA [16], the “Pre-emergence action against DIGSA in %” value is given as 100%.
